Measured values: patent publication US10081635B2, “Substituted N-(pyrrolidine-3-yl)-7H-pyrrolo[2,3-D]pyrimidine-4-amine as janus kinase inhibitor” (YANG JI CHEMICAL CO., LTD., priority 2014, dated 2018)

Columns and labels:
Assay type in all cases: biochemical
[1] = biological target: Human JAK1 (Homo sapiens (Human), UniProt P23458); test: In vitro kinase inhibition test, JAK1 (33P-ATP filter scintillation); conditions: compound at 1 uM; read-out: JAK1 kinase-phosphorylation inhibitory level (% inhibition)
Sequence of Human JAK1 (P23458 whole entry): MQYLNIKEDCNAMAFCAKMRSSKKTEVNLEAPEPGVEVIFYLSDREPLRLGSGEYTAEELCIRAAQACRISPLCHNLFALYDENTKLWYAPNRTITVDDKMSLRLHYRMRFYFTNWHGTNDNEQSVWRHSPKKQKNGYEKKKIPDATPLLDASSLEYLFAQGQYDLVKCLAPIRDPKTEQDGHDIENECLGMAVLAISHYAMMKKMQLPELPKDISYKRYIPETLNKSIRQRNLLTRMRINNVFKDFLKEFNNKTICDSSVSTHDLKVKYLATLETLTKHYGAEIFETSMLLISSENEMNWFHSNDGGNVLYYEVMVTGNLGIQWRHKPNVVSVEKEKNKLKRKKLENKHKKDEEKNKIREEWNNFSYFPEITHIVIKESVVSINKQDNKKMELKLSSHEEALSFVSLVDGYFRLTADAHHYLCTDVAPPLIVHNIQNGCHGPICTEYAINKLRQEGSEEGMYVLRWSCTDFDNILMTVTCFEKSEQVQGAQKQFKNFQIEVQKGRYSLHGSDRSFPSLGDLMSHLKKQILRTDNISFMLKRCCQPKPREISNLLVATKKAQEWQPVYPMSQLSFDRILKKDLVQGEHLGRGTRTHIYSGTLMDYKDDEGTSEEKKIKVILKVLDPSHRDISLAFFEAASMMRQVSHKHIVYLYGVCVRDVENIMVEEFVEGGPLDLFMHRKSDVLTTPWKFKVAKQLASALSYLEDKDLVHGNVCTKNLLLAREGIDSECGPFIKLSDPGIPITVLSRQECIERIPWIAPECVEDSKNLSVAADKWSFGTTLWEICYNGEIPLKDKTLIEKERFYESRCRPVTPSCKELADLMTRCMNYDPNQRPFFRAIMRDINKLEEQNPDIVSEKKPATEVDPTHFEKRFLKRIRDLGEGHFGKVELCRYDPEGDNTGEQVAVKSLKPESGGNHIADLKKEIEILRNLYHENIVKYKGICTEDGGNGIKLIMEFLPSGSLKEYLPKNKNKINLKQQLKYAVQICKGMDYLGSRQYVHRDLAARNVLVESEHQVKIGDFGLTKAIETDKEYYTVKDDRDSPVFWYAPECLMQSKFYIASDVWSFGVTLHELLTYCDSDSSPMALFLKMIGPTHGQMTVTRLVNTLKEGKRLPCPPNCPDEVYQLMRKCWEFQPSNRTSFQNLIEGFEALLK
Method: (§1) 1. In Vitro Kinase Inhibition Test
(§2) Kinases used were human-derived JAK1, JAK2, JAK3, and TYK2 (Millipore, Germany). Each of these kinases was diluted with a suitable buffer solution as described below, and then mixed with reagents.
Tris(hydroxymethyl)aminomethane (TRIS) and ethylenediaminetetraacetic acid (EDTA) were dissolved in distilled water at a concentration of 20 mM and 0.2 mM, respectively, and 100 uL of β-mercaptoethanol, 10 uL of Brij-35™, and 5 mL of glycerol, each per 100 mL of the solution, were added to the solution, thereby preparing a JAK1 dilution buffer solution.
(§3) Each compound was dissolved in a 100% DMSO solution at a 50 uM concentration. This solution was reacted with reagents in wells on a 96-well plate to reach a final concentration of 1 uM. Detailed experimental methods for each kinase are described below.
After reaction for about 40 minutes at room temperature, the reaction was stopped by adding 5 uL of a 3% (v/v) phosphoric acid solution. […] The methanol drying is a drying process using an azeotropic effect, wherein methanol is added into an aqueous solution for drying.
(§4) In Tables 5 and 6, the numbers in the “Example” column, which are identification numbers of the examples, indicate the compounds synthesized in the corresponding examples, the values in the “JAK1”, “JAK2”, “JAK3”, and “TYK2” columns represent kinase-phosphorylation inhibitory levels as a percentage (%) of the compounds synthesized in the corresponding examples at a 1 uM concentration. In Tables 5 and 6, negative values substantially indicate no inhibitory effect.
(§5) The inhibitory levels (% inhibition) represent a percentage of reduction in phosphorylation activity in each test group with respect to the phosphorylation activity of a corresponding kinase in a negative control group lacking any of the compounds synthesized in the examples. % inhibition=[(Scintillation value of Test compound non-treatment group−Scintillation value of Test compound treatment group)/(Scintillation value of Test compound non-treatment group)]×100

[2] = biological target: Human JAK2 (Homo sapiens (Human), UniProt O60674); test: In vitro kinase inhibition test, JAK2 (33P-ATP filter scintillation); conditions: compound at 1 uM; read-out: JAK2 kinase-phosphorylation inhibitory level (% inhibition)
Sequence of Human JAK2 (O60674 whole entry): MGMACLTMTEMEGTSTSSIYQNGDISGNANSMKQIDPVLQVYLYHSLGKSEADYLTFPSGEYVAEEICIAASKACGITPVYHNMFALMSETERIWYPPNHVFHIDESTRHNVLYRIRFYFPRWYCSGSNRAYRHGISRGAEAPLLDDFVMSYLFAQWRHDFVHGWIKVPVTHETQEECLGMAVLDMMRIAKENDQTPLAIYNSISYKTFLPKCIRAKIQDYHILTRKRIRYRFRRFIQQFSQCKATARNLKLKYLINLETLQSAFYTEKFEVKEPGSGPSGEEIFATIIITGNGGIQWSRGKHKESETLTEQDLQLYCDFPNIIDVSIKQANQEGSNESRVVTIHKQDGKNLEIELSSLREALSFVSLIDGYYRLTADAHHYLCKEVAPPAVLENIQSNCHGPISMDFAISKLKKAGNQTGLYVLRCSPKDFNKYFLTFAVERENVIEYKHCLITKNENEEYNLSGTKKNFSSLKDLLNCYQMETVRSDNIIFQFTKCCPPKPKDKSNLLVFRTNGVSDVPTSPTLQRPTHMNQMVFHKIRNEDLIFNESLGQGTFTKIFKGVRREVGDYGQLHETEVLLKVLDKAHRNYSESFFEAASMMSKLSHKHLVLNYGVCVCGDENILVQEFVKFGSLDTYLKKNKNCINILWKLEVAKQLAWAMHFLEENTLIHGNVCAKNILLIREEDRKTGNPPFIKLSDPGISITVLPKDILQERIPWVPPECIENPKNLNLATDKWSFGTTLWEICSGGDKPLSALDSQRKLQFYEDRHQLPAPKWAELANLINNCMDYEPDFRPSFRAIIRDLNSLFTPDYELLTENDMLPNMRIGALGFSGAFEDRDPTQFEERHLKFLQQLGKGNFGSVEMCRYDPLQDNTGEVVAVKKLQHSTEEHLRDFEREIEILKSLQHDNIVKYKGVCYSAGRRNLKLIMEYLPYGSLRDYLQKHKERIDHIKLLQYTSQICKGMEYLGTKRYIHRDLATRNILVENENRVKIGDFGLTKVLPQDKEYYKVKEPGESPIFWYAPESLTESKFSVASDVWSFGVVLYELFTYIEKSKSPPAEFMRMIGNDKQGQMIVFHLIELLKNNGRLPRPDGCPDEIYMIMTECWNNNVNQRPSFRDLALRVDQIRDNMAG
Method: as §1, §2
(§6) 3-morpholinopropane-1-sulfonic acid (MOPS) and EDTA were dissolved in distilled water at a concentration of 20 mM and 1 mM, respectively, and 100 uL of β-mercaptoethanol, 10 uL of Brij-35™, 5 mL of glycerol, and 100 mg of bovine serum albumin (BSA), each per 100 mL of the solution, were added to the solution, thereby preparing a JAK2, JAK3, and TYK2 dilution buffer solution.
as §3
(§7) After reaction for about 40 minutes at room temperature, the reaction was stopped by adding 5 uL of a 3% (v/v) phosphoric acid solution.
as §4, §5

[3] = biological target: Human JAK3 (Homo sapiens (Human), UniProt P52333); test: In vitro kinase inhibition test, JAK3 (33P-ATP filter scintillation); conditions: compound at 1 uM; read-out: JAK3 kinase-phosphorylation inhibitory level (% inhibition)
Sequence of Human JAK3 (P52333 whole entry): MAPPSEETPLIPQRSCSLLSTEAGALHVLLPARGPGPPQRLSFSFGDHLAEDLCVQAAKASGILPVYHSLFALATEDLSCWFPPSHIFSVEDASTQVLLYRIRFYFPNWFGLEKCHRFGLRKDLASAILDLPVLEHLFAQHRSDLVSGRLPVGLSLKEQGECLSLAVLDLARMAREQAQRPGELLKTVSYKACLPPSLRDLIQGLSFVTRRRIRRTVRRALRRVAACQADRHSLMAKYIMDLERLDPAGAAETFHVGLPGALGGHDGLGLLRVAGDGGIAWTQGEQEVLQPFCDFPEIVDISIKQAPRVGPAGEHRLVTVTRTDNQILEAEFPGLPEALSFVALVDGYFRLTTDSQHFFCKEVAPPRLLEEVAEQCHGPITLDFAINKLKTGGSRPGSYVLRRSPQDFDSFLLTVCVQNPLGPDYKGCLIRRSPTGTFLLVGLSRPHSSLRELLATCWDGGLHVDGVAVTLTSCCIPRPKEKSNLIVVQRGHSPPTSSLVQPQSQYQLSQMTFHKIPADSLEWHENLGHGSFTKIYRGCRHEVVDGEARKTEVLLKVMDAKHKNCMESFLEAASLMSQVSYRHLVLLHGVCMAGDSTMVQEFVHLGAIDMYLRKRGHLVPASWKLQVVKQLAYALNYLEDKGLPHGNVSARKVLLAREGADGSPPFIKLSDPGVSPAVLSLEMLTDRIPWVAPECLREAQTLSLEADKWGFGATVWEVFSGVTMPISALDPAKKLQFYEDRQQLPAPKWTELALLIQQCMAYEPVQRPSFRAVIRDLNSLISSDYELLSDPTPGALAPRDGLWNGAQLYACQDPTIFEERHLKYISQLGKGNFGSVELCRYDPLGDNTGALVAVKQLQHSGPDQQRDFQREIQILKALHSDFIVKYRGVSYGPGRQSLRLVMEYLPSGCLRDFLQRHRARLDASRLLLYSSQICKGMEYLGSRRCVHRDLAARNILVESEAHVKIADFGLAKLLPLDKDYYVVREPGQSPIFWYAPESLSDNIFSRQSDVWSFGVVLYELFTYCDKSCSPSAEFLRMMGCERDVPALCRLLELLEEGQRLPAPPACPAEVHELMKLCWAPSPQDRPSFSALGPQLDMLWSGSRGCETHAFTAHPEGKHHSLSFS
Method: as §1, §2, §6, §3, §7, §4, §5

[4] = biological target: Human TYK2 (Homo sapiens (Human), UniProt P29597); test: In vitro kinase inhibition test, TYK2 (33P-ATP filter scintillation); conditions: compound at 1 uM; read-out: TYK2 kinase-phosphorylation inhibitory level (% inhibition)
Sequence of Human TYK2 (P29597 whole entry): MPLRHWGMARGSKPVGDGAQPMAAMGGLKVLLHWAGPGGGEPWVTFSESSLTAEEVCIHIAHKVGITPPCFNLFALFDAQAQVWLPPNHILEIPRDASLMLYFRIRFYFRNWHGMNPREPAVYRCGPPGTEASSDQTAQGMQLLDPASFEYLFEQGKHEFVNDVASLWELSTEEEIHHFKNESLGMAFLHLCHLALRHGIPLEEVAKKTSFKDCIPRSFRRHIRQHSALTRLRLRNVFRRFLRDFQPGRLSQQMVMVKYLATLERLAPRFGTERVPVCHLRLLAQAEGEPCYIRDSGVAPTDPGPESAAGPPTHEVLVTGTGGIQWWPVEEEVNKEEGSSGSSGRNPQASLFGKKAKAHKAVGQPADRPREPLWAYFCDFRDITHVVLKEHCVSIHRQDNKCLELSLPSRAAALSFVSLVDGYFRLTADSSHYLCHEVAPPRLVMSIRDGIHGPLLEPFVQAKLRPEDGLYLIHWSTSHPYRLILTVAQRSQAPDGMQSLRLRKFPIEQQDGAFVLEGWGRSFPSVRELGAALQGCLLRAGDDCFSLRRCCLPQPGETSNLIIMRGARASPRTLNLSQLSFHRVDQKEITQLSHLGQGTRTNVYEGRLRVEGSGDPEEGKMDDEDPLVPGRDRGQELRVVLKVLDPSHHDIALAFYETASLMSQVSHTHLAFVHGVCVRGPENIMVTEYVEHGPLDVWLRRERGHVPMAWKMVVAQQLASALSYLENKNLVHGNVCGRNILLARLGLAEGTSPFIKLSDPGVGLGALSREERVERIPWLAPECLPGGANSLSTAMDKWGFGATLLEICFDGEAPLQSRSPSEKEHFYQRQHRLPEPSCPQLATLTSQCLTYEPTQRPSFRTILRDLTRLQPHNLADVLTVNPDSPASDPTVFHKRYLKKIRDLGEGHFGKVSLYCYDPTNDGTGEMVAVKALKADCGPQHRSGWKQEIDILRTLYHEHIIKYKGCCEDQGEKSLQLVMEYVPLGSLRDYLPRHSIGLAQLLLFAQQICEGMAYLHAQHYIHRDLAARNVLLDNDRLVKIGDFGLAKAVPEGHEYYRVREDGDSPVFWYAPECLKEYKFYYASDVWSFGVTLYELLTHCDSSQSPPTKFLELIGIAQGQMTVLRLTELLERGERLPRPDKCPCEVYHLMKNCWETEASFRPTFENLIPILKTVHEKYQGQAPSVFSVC
Method: as §1, §2, §6, §3, §7, §4, §5

inhibition at 1 µM [1]	inhibition at 1 µM [2]	inhibition at 1 µM [3]	inhibition at 1 µM [4]	SMILES
94%	64%	47%	72%	CN(c1ncnc2[nH]ccc12)[C@H]1CN(S(=O)(=O)c2ccccc2C#N)CC12CC2 [Example 40, (R)-2-((7-(methyl(7H-pyrrolo[2,3-d]pyrimidin-4-yl)amino)-5-azaspiro[2.4]heptan-5-yl)sulfonyl)benzonitrile]
97%	49%	33%	68%	CN(c1ncnc2[nH]ccc12)[C@H]1CN(S(=O)(=O)c2ccc(C#N)cc2)CC12CC2 [Example 42, (R)-4-((7-(methyl(7H-pyrrolo[2,3-d]pyrimidin-4-yl)amino)-5-azaspiro[2.4]heptan-5-yl)sulfonyl)benzonitrile]
97%	70%	75%	78%	CN(c1ncnc2[nH]ccc12)[C@H]1CN(S(=O)(=O)c2ccccc2[N+](=O)[O-])CC12CC2 [Example 43, (R)-N-methyl-N-(5-((2-nitrophenyl)sulfonyl)-5-azaspiro[2.4]heptan-7-yl)-7H-pyrrolo[2,3-d]pyrimidin-4-amine]
100%	96%	96%	98%	CN(c1ncnc2[nH]ccc12)[C@H]1CN(S(=O)(=O)c2cccc([N+](=O)[O-])c2)CC12CC2 [Example 44, (R)-N-methyl-N-(5-((3-nitrophenyl)sulfonyl)-5-azaspiro[2.4]heptan-7-yl)-7H-pyrrolo[2,3-d]pyrimidin-4-amine]
100%	84%	60%	88%	CN(c1ncnc2[nH]ccc12)[C@H]1CN(S(=O)(=O)c2ccc([N+](=O)[O-])cc2)CC12CC2 [Example 45, (R)-N-methyl-N-(5-((4-nitrophenyl)sulfonyl)-5-azaspiro[2.4]heptan-7-yl)-7H-pyrrolo[2,3-d]pyrimidin-4-amine]
98%	81%	62%	92%	Cc1cccc(S(=O)(=O)N2C[C@H](N(C)c3ncnc4[nH]ccc34)C3(CC3)C2)c1 [Example 46, (R)-N-methyl-N-(5-(m-tolylsulfonyl)-5-azaspiro[2.4]heptan-7-yl)-7H-pyrrolo[2,3-d]pyrimidin-4-amine]
99%	69%	39%	71%	COc1ccc(S(=O)(=O)N2C[C@H](N(C)c3ncnc4[nH]ccc34)C3(CC3)C2)cc1 [Example 47, (R)-N-(5-((4-methoxyphenyl)sulfonyl)-5-azaspiro[2.4]heptan-7-yl)-N-methyl-7H-pyrrolo[2,3-d]pyrimidin-4-amine]
98%	36%	28%	66%	CN(c1ncnc2[nH]ccc12)[C@H]1CN(S(=O)(=O)c2ccc(C(F)(F)F)cc2)CC12CC2 [Example 48, (R)-N-methyl-N-(5-((4-(trifluoromethyl)phenyl)sulfonyl)-5-azaspiro[2.4]heptan-7-yl)-7H-pyrrolo[2,3-d]pyrimidin-4-amine]
98%	65%	55%	75%	CN(c1ncnc2[nH]ccc12)[C@H]1CN(S(=O)(=O)c2ccc3ccccc3c2)CC12CC2 [Example 49, (R)-N-methyl-N-(5-(naphthalen-2-ylsulfonyI)-5-azaspiro[2.4]heptan-7-yl)-7H-pyrrolo[2,3-d]pyrimidin-4-amine]
98%	56%	60%	81%	CN(c1ncnc2[nH]ccc12)[C@H]1CN(S(=O)(=O)N2CCCCC2)CC12CC2 [Example 50, (R)-N-methyl-N-(5-(piperidin-1-ylsulfonyl)-5-azaspiro[2.4]heptan-7-yl)-7H-pyrrolo[2,3-d]pyrimidin-4-amine]
97%	60%	49%	69%	CN(c1ncnc2[nH]ccc12)[C@H]1CN(S(=O)(=O)N2CCOCC2)CC12CC2 [Example 51, (R)-N-methyl-N-(5-(morpholinosulfonyl)-5-azaspiro[2.4]heptan-7-yl)-7H-pyrrolo[2,3-d]pyrimidin-4-amine]
58%	-22%	17%	20%	CCC(=O)N1CC(N(C)c2ncnc3[nH]ccc23)C2(CC2)C1 (stereo not shown) [Example 52, 1-(7-(methyl(7H-pyrrolo[2,3-d]pyrimidin-4-yl)amino)-5-azaspiro[2.4]heptan-5-yl)propan-1-one]
76%	-18%	3%	7%	COCC(=O)N1CC(N(C)c2ncnc3[nH]ccc23)C2(CC2)C1 (stereo not shown) [Example 53, 2-methoxy-1-(7-(methyl(7H-pyrrolo[2,3-d]pyrimidin-4-yl)amino)-5-azaspiro[2.4]heptan-5-yl)ethan-1-one]
94%	60%	73%	72%	CN(c1ncnc2[nH]ccc12)C1CN(C(=O)CN=[N+]=[N-])CC12CC2 (stereo not shown) [Example 54, 2-azido-1-(7-(methyl(7H-pyrrolo[2,3-d]pyrimidin-4-yl)amino)-5-azaspiro[2.4]heptan-5-yl)ethan-1-one]
9%	-37%	9%	-10%	CC(=O)NCC(=O)N1CC(N(C)c2ncnc3[nH]ccc23)C2(CC2)C1 (stereo not shown) [Example 56, N-(2-(7-(methyl(7H-pyrrolo[2,3-d]pyrimidin-4-yl)amino)-5-azaspiro[2.4]heptan-5-yl)-2-oxoethyl)acetamide]
55%	7%	-9%	11%	CNC(=O)CC(=O)N1CC(N(C)c2ncnc3[nH]ccc23)C2(CC2)C1 (stereo not shown) [Example 57, N-methyl-3-(7-(methyl(7H-pyrrolo[2,3-d]pyrimidin-4-yl)amino)-5-azaspiro[2.4]heptan-5-yl)-3-oxopropanamide]
34%	2%	-9%	-4%	CN(c1ncnc2[nH]ccc12)C1CN(C(=O)CCN)CC12CC2 (stereo not shown) [Example 58, 3-amino-1-(7-(methyl(7H-pyrrolo[2,3-d]pyrimidin-4-yl)amino)-5-azaspiro[2.4]heptan-5-yl)propan-1-one]
72%	-17%	20%	-8%	CN(c1ncnc2[nH]ccc12)C1CN(C(=O)Cn2ccnc2)CC12CC2 (stereo not shown) [Example 59, 2-(1H-imidazol-1-yl)-1-(7-(methyl(7H-pyrrolo[2,3-d]pyrimidin-4-yl)amino)-5-azaspiro[2.4]heptan-5-yl)ethan-1-one]
96%	-3%	-14%	0%	CN(c1ncnc2[nH]ccc12)C1CN(C(=S)CC#N)CC12CC2 (stereo not shown) [Example 60, 3-(7-(methyl(7H-pyrrolo[2,3-d]pyrimidin-4-yl)amino)-5-azaspiro[2.4]heptan-5-yl)-3-thioxopropanenitrile]
